In ChEMBL document CHEMBL4020788, “Synthesis, SAR and molecular docking studies of benzo[d]thiazole-hydrazones as potential antibacterial and antifungal agents” (2017):
Active and inactive are the calls of the source. The rule behind the calls is not given here.

Key:
Type in all cases: functional
[1] = tested on: Escherichia coli; assay: Antibacterial activity against Escherichia coli at 50 ug/ml after 24 hrs by agar well diffusion method; settings: read-out: DIZ
[2] = tested on: Fusarium oxysporum; assay: Antifungal activity against Fusarium oxysporum at 100 ug/ml after 48 hrs by agar well diffusion method; settings: read-out: DIZ
[3] = tested on: Fusarium oxysporum; assay: Antifungal activity against Fusarium oxysporum at 25 ug/ml after 48 hrs by agar well diffusion method; settings: read-out: DIZ
[4] = tested on: Fusarium verticillioides; assay: Antifungal activity against Fusarium moniliforme at 100 ug/ml after 48 hrs by agar well diffusion method; settings: read-out: DIZ
[5] = tested on: Fusarium verticillioides; assay: Antifungal activity against Fusarium moniliforme at 25 ug/ml after 48 hrs by agar well diffusion method; settings: read-out: DIZ
[6] = tested on: Staphylococcus aureus; assay: Antibacterial activity against methicillin resistant Staphylococcus aureus MRSA090 at 25 ug/ml after 24 hrs by agar well diffusion method; settings: MRSA090, 24 h, read-out: DIZ
[7] = tested on: Staphylococcus aureus; assay: Antibacterial activity against Staphylococcus aureus at 50 ug/ml after 24 hrs by agar well diffusion method
[8] = tested on: Fusarium verticillioides; assay: Antifungal activity against Fusarium moniliforme at 50 ug/ml after 48 hrs by agar well diffusion method; settings: read-out: DIZ
[9] = tested on: Klebsiella pneumoniae; assay: Antibacterial activity against Klebsiella pneumoniae at 100 ug/ml after 24 hrs by agar well diffusion method; settings: read-out: DIZ
[10] = tested on: Staphylococcus aureus; assay: Antibacterial activity against Staphylococcus aureus at 75 ug/ml after 24 hrs by agar well diffusion method; settings: read-out: DIZ
[11] = tested on: Klebsiella pneumoniae; assay: Antibacterial activity against Klebsiella pneumoniae at 50 ug/ml after 24 hrs by agar well diffusion method; settings: read-out: DIZ
[12] = tested on: Aspergillus niger; assay: Antifungal activity against Aspergillus niger at 75 ug/ml after 48 hrs by agar well diffusion method; settings: read-out: DIZ
[13] = tested on: Aspergillus niger; assay: Antifungal activity against Aspergillus niger at 100 ug/ml after 48 hrs by agar well diffusion method; settings: read-out: DIZ
[14] = tested on: Bacillus subtilis; assay: Antibacterial activity against Bacillus subtilis at 75 ug/ml after 24 hrs by agar well diffusion method; settings: read-out: DIZ
[15] = tested on: Fusarium oxysporum; assay: Antifungal activity against Fusarium oxysporum at 75 ug/ml after 48 hrs by agar well diffusion method; settings: read-out: DIZ
[16] = tested on: Escherichia coli; assay: Antibacterial activity against Escherichia coli at 75 ug/ml after 24 hrs by agar well diffusion method; settings: read-out: DIZ
[17] = tested on: Bacillus subtilis; assay: Antibacterial activity against Bacillus subtilis at 25 ug/ml after 24 hrs by agar well diffusion method; settings: read-out: DIZ
[18] = tested on: Bacillus subtilis; assay: Antibacterial activity against Bacillus subtilis at 100 ug/ml after 24 hrs by agar well diffusion method; settings: read-out: DIZ
[19] = tested on: Staphylococcus aureus; assay: Antibacterial activity against Staphylococcus aureus at 25 ug/ml after 24 hrs by agar well diffusion method
[20] = tested on: Fusarium oxysporum; assay: Antifungal activity against Fusarium oxysporum at 50 ug/ml after 48 hrs by agar well diffusion method; settings: read-out: DIZ
[21] = tested on: Staphylococcus aureus; assay: Antibacterial activity against methicillin resistant Staphylococcus aureus MRSA090 at 50 ug/ml after 24 hrs by agar well diffusion method; settings: MRSA090, 24 h, read-out: DIZ
[22] = tested on: Escherichia coli; assay: Antibacterial activity against Escherichia coli at 100 ug/ml after 24 hrs by agar well diffusion method; settings: read-out: DIZ
[23] = tested on: Klebsiella pneumoniae; assay: Antibacterial activity against Klebsiella pneumoniae at 25 ug/ml after 24 hrs by agar well diffusion method; settings: read-out: DIZ
[24] = tested on: Escherichia coli; assay: Antibacterial activity against Escherichia coli at 25 ug/ml after 24 hrs by agar well diffusion method; settings: read-out: DIZ
[25] = tested on: Aspergillus niger; assay: Antifungal activity against Aspergillus niger at 50 ug/ml after 48 hrs by agar well diffusion method; settings: read-out: DIZ
[26] = tested on: Staphylococcus aureus; assay: Antibacterial activity against Staphylococcus aureus at 100 ug/ml after 24 hrs by agar well diffusion method; settings: read-out: DIZ
[27] = tested on: Fusarium verticillioides; assay: Antifungal activity against Fusarium moniliforme at 75 ug/ml after 48 hrs by agar well diffusion method; settings: read-out: DIZ
[28] = tested on: Staphylococcus aureus; assay: Antibacterial activity against methicillin resistant Staphylococcus aureus MRSA090 at 100 ug/ml after 24 hrs by agar well diffusion method; settings: MRSA090, 24 h, read-out: DIZ
[29] = tested on: Klebsiella pneumoniae; assay: Antibacterial activity against Klebsiella pneumoniae at 75 ug/ml after 24 hrs by agar well diffusion method; settings: read-out: DIZ
[30] = tested on: Aspergillus niger; assay: Antifungal activity against Aspergillus niger at 25 ug/ml after 48 hrs by agar well diffusion method; settings: read-out: DIZ
[31] = tested on: Bacillus subtilis; assay: Antibacterial activity against Bacillus subtilis at 50 ug/ml after 24 hrs by agar well diffusion method; settings: read-out: DIZ
[32] = tested on: Staphylococcus aureus; assay: Antibacterial activity against methicillin resistant Staphylococcus aureus MRSA090 at 75 ug/ml after 24 hrs by agar well diffusion method; settings: MRSA090, 24 h, read-out: DIZ

SMILES | zone of inhibition at 50 µg/mL [1] [mm] | zone of inhibition at 100 µg/mL [2] [mm] | zone of inhibition at 25 µg/mL [3] [mm] | zone of inhibition at 100 µg/mL [4] [mm] | zone of inhibition at 25 µg/mL [5] [mm] | zone of inhibition at 25 µg/mL [6] [mm] | zone of inhibition at 50 µg/mL [8] [mm] | zone of inhibition at 100 µg/mL [9] [mm] | zone of inhibition at 75 µg/mL [10] [mm] | zone of inhibition at 50 µg/mL [11] [mm] | zone of inhibition at 75 µg/mL [12] [mm] | zone of inhibition at 100 µg/mL [13] [mm] | zone of inhibition at 75 µg/mL [14] [mm] | zone of inhibition at 75 µg/mL [15] [mm] | zone of inhibition at 75 µg/mL [16] [mm] | zone of inhibition at 25 µg/mL [17] [mm] | zone of inhibition at 100 µg/mL [18] [mm] | zone of inhibition at 50 µg/mL [20] [mm] | zone of inhibition at 50 µg/mL [21] [mm] | zone of inhibition at 100 µg/mL [22] [mm] | further results
Cc1cccc2nc(N/N=C/c3ccc(Br)cc3)sc12 | 7 | 29 | 13 | 28 | 12 | 9 | 17 | 17 | 5 | 11 | 23 | 28 | 11 | 23 | 11 | 4 | 13 | 18 | 11 | 14 | diameter of the inhibition zone (DIZ) [7]: inactive; diameter of the inhibition zone (DIZ) [19]: inactive; zone of inhibition at 25 µg/mL [23]: 6 mm; zone of inhibition at 25 µg/mL [24]: 3 mm; zone of inhibition at 50 µg/mL [25]: 18 mm; zone of inhibition at 100 µg/mL [26]: 9 mm; zone of inhibition at 75 µg/mL [27]: 24 mm; zone of inhibition at 100 µg/mL [28]: 19 mm; zone of inhibition at 75 µg/mL [29]: 14 mm; zone of inhibition at 25 µg/mL [30]: 14 mm; zone of inhibition at 50 µg/mL [31]: 7 mm; zone of inhibition at 75 µg/mL [32]: 15 mm
COc1cc(/C=N/Nc2nc3cccc(C)c3s2)cc(Br)c1O | 15 | 20 | 8 | 20 | 9 | 7 | 13 | 21 | 13 | 14 | 16 | 18 | 13 | 17 | 19 | 5 | 17 | 14 | 13 | 21 | zone of inhibition at 50 µg/mL ([7]; read-out: DIZ): 10 mm; zone of inhibition at 25 µg/mL ([19]; read-out: DIZ): 8 mm; zone of inhibition at 25 µg/mL [23]: 9 mm; zone of inhibition at 25 µg/mL [24]: 11 mm; zone of inhibition at 50 µg/mL [25]: 11 mm; zone of inhibition at 100 µg/mL [26]: 16 mm; zone of inhibition at 75 µg/mL [27]: 17 mm; zone of inhibition at 100 µg/mL [28]: 20 mm; zone of inhibition at 75 µg/mL [29]: 17 mm; zone of inhibition at 25 µg/mL [30]: 7 mm; zone of inhibition at 50 µg/mL [31]: 9 mm; zone of inhibition at 75 µg/mL [32]: 19 mm
